In brackets after ≈: the same amount, converted by molar mass. Where a name gives a salt, the structure may show the parent alone. Read-outs that look alike come from different tables or passages of the source.

Consider 22 molecules from patent US8697742B2, “BCRP/ABCG2 inhibitor” (Kabushiki Kaisha Yakult Honsha, priority 2005, dated 2014).

The test system of test [1] is A549/SN-38-4 cells. Kind of test: Effect of overcoming SN-38 resistance of BCRP-expressing A549/SN-38-4 cells. Type of test: cell-based, human. As to conditions: concentration for 50% reduction of relative SN-38 resistance value (IC50 A549/SN-38-4 / IC50 A549), 48 hours culture with SN-38; for EC50: Homo sapiens, A549, 48 h, read-out: Effect of overcoming resistance EC50. How it is done:
The human lung cancer A549 cells or the A549/SN-38-4 cells were suspended in a Ham's F-12 medium containing 10% FBS, 100 U/mL of penicillin, and 100 μg/mL of streptomycin (10% FBS/Ham's F-12), and the resultant suspension was inoculated into a 96-well microplate (2×10^3 cells/50 μL/well), followed by culturing at 5% CO2 and 37° C. overnight. […] After completion of culturing, the number of viable cells was counted by use of a viable cell counting reagent [TetraColor ONE (trademark), product of Seikagaku Corporation] according to the attached instruction manual. […] The greater the relative resistance value, the higher the level of acquired resistance.

Test [2] deals with K562/MDR cells. Briefly: Effect on paclitaxel (multidrug) resistance of human MDR1 gene-transduced K562 cells. Type of test: cell-based. As to conditions: for EC50: Homo sapiens, read-out: Effect of overcoming resistance EC50. From the text: After completion of culturing, the number of viable cells was counted by use of TetraColor ONE according to the manufacture's instruction manual.

The subject of test [3] is HCT116/BCRP cells. Briefly: Effect of overcoming anticancer agent resistance in vivo, HCT116/BCRP tumour in nude mice. On the set-up: species or system human. As to conditions: day 21; for Tumor weight Mean ± S.D.: BALB/c nude mice; for Tumor growth inhibition ratio IR: vs control group. From the text:
A solvent was solely administered to a control group. On the day 21 from the start of administration, a tumor was extirpated from each mice and weighed, and the tumor growth inhibition ratio IR (%) was derived from the following equation: Tumor growth inhibition ratio IR(%)=(1−average tumor weight of each administration group/average tumor weight of control group)×100.

Setting [4] is: concentration for 50% reduction of relative paclitaxel resistance value, K562/MDR vs K562, 72 hours.
The mark [5] stands for this setting: compound 12.5 mg/kg/day + CPT-11 10 mg/kg/day i.v. once a day for seven days.
Where [6] appears, read: compound 25 mg/kg/day + CPT-11 10 mg/kg/day i.v. once a day for seven days.

For orientation: EC50 means the midpoint of the concentration-response curve. For `COc1ccc(/C(C#N)=C/c2ccc(N3CCOCC3)s2)cc1OC` [Compound 5, (Z)-2-(3,4-dimethoxy-phenyl)-3-(5-morpholin-4-yl-thiophen-2-yl)-acrylonitrile], the EC50 is 0.013 µg/mL (≈ 0.0365 µM) in test [1] and greater than 5 µg/mL in test [2] (setting [4]).

As for `COc1ccc(/C(C#N)=C/c2ccc(N3CCN(C)CC3)s2)cc1OC` [Compound 13, (Z)-2-(3,4-dimethoxy-phenyl)-3-[5-(4-methyl-piperazin-1-yl)-thiophen-2-yl]-acrylonitrile hydrochloride], the “Effect of overcoming resistance EC50” value in test [1] (hydrochloride) turned out to be 0.033 µg/mL. Also, in test [3] (setting [5]), the “Tumor weight Mean ± S.D.” value is recorded as 0.87 ± 0.18 g and the “Tumor growth inhibition ratio IR” value was 31.7%. Also, in test [3] (setting [6]), the “Tumor weight Mean ± S.D.” value amounted to 0.83 ± 0.08 g and the “Tumor growth inhibition ratio IR” value came to 35.0%.

With `COc1ccc(/C(C#N)=C/c2ccc(N3CCN(CCO)CC3)s2)cc1OC` [Compound 14, (Z)-2-(3,4-dimethoxy-phenyl)-3-{5-[4-(2-hydroxy-ethyl)-piperazin-1-yl]-thiophen-2-yl}-acrylonitrile hydrochloride], the “Effect of overcoming resistance EC50” value in test [1] (hydrochloride) is 0.087 µg/mL. The EC50 in test [2] (K562, 72 h) is greater than 5 µg/mL. Further, the results for the “Tumor weight Mean ± S.D.” value in test [3] (setting [5]) and in test [3] (setting [6]) were 0.79 ± 0.14 g and 0.70 ± 0.10 g, respectively. Also, the figures for the “Tumor growth inhibition ratio IR” value in test [3] (setting [5]) and in test [3] (setting [6]) were 37.7% and 45.1%, respectively.

As to `COc1ccc(/C(C#N)=C/c2ccc([N+](=O)[O-])o2)cc1OC` [Compound 19, (Z)-2-(3,4-dimethoxy-phenyl)-3-(5-nitro-furan-2-yl)-acrylonitrile], the EC50 is 0.014 µg/mL (≈ 0.0466 µM) in test [1] and greater than 5 µg/mL in test [2] (setting [4]).

Consider `COc1ccc(/C(C#N)=C/c2ccc(CO)o2)cc1OC` [Compound 20, (Z)-2-(3,4-dimethoxy-phenyl)-3-(5-hydroxy-methyl-furan-2-yl)-acrylonitrile], for which the “Effect of overcoming resistance EC50” value is 0.49 µg/mL in test [1] and greater than 5 µg/mL in test [2] (setting [4]).

In the case of `COc1ccc(/C(C#N)=C/c2ccc(-c3cccc(N)c3)o2)cc1OC` [Compound 23, (Z)-3-[5-(3-amino-phenyl)-furan-2-yl]-2-(3,4-dimethoxy-phenyl)-acrylonitrile hydrochloride], in test [1] (hydrochloride), the “Effect of overcoming resistance EC50” value turned out to be 0.058 µg/mL. Also, in test [3] (setting [5]), the “Tumor weight Mean ± S.D.” value was 1.21 ± 0.17 g and the “Tumor growth inhibition ratio IR” value stood at 12.3%. In test [3] (setting [6]), the “Tumor weight Mean ± S.D.” value stood at 0.71 ± 0.11 g and the “Tumor growth inhibition ratio IR” value amounted to 48.8%.

In the case of `COc1ccc(/C(C#N)=C/c2ccc(N3CCOCC3)o2)cc1OC` [Compound 25, (Z)-2-(3,4-dimethoxy-phenyl)-3-(5-morpholin-4-yl-furan-2-yl)-acrylonitrile], the EC50 in test [1] was 0.013 µg/mL (≈ 0.0382 µM); in test [2] (setting [4]) it was greater than 5 µg/mL.

For `COc1ccc(/C(C#N)=C/c2ccc(N3CCC(O)CC3)o2)cc1OC` [Compound 26, (Z)-2-(3,4-dimethoxy-phenyl)-3-[5-(4-hydroxy-piperidin-1-yl)-furan-2-yl]-acrylonitrile], the EC50 in test [1] is 0.075 µg/mL (≈ 0.212 µM); in test [2] (setting [4]), greater than 5 µg/mL.

Consider `COc1ccc(/C(C#N)=C/c2ccc(N3CCN(C)CC3)o2)cc1OC` [Compound 27, (Z)-2-(3,4-dimethoxy-phenyl)-3-[5-(4-methyl-piperazin-1-yl)-furan-2-yl]-acrylonitrile], for which, in test [1], the “Effect of overcoming resistance EC50” value was found to be 0.2 µg/mL. Also, in test [2] (setting [4]), the concentration for a half-maximal effect (EC50) is greater than 5 µg/mL.

Turning to `COc1ccc(/C(C#N)=C/c2ccc(N3CCN(CCO)CC3)o2)cc1OC` [Compound 28, (Z)-2-(3,4-dimethoxy-phenyl)-3-{5-[4-(2-hydroxy-ethyl)-piperazin-1-yl]-furan-2-yl}-acrylonitrile], the EC50 was 0.12 µg/mL (≈ 0.313 µM) in test [1] and greater than 5 µg/mL in test [2] (setting [4]).

For the molecule `COc1ccc(/C(C#N)=C/c2ccncc2)cc1OC` [Compound 30, (Z)-2-(3,4-dimethoxy-phenyl)-3-pyridin-4-yl-acrylonitrile], the EC50 is 0.02 µg/mL (≈ 0.0751 µM) in test [1] and greater than 5 µg/mL in test [2] (setting [4]).

Consider `COc1ccc(/C(C#N)=C/c2ccncc2)cc1OC` [Compound 31, (Z)-2-(3,4-dimethoxy-phenyl)-3-pyridin-4-yl-acrylonitrile hydrochloride], for which the “Effect of overcoming resistance EC50” value in test [1] (hydrochloride) was found to be 0.037 µg/mL. Besides, in test [3] (setting [5]), the “Tumor weight Mean ± S.D.” value turned out to be 0.74 ± 0.06 g and the “Tumor growth inhibition ratio IR” value was found to be 46.6%. In test [3] (setting [6]), the “Tumor weight Mean ± S.D.” value was determined as 0.67 ± 0.18 g and the “Tumor growth inhibition ratio IR” value amounted to 51.1%.

Regarding `COc1ccc(/C(C#N)=C/c2cccnc2)cc1OC` [Compound 34, (Z)-2-(3,4-dimethoxy-phenyl)-3-pyridin-3-yl-acrylonitrile], the “Effect of overcoming resistance EC50” value in test [1] was 0.058 µg/mL. Besides, the EC50 in test [2] (setting [4]) was greater than 5 µg/mL.

`COc1ccc(/C(C#N)=C/c2ccccn2)cc1OC` [Compound 38, (Z)-2-(3,4-dimethoxy-phenyl)-3-pyridin-2-yl-acrylonitrile]: the EC50 in test [1] was 0.06 µg/mL (≈ 0.225 µM); in test [2] (setting [4]), greater than 5 µg/mL.

With `COc1ccc(/C(C#N)=C/c2ccc[nH]2)cc1OC.Cl` [Compound 40, (Z)-2-(3,4-dimethoxy-phenyl)-3-(1H-pyrrol-2-yl)-acrylonitrile hydrochloride], the EC50 was 0.075 µg/mL in test [1] and greater than 5 µg/mL in test [2] (setting [4]).

For `COc1ccc(/C(C#N)=C/c2cnc(SC)n2Cc2ccccc2)cc1OC` [Compound 42, (Z)-3-(3-benzyl-2-methylsulfanyl-3H-imidazol-4-yl)-2-(3,4-dimethoxy-phenyl)-acrylonitrile], the EC50 in test [1] was 0.22 µg/mL (≈ 0.562 µM); in test [2] (setting [4]) it was greater than 5 µg/mL.

Regarding `COc1ccc(/C(C#N)=C/c2sc(-c3ccccc3)nc2C)cc1OC` [Compound 43, (Z)-2-(3,4-dimethoxy-phenyl)-3-(4-methyl-2-phenyl-thiazol-5-yl)-acrylonitrile], the half-maximal effective concentration (EC50) in test [1] is 0.16 µg/mL (≈ 0.441 µM); in test [2] (setting [4]), greater than 5 µg/mL.

`COc1ccc(/C=C(\C#N)c2cccnc2)cc1OC` [Compound 44, (Z)-3-(3,4-dimethoxy-phenyl)-2-pyridin-3-yl-acrylonitrile]: the half-maximal effective concentration (EC50) in test [1] was 0.056 µg/mL (≈ 0.21 µM); in test [2] (setting [4]), greater than 5 µg/mL.

On to `COc1ccc(/C=C(\C#N)c2ccccn2)cc1OC` [Compound 45, (Z)-3-(3,4-dimethoxy-phenyl)-2-pyridin-2-yl-acrylonitrile], for which the EC50 is 0.05 µg/mL (≈ 0.188 µM) in test [1] and greater than 5 µg/mL in test [2] (setting [4]).

As for `COc1ccc(/C=C(\C#N)c2cccnc2)cc1OC` [Compound 46, (Z)-3-(3,4-dimethoxy-phenyl)-2-pyridin-3-yl-acrylonitrile hydrochloride], the “Effect of overcoming resistance EC50” value in test [1] (hydrochloride) was determined as 0.1 µg/mL. Besides, in test [3] (setting [5]), the “Tumor weight Mean ± S.D.” value worked out at 0.79 ± 0.21 g and the “Tumor growth inhibition ratio IR” value came to 37.7%. Further, in test [3] (setting [6]), the “Tumor weight Mean ± S.D.” value was determined as 0.67 ± 0.07 g and the “Tumor growth inhibition ratio IR” value stood at 47.7%.

Regarding `COc1ccc(/C=C(\C#N)c2ccsc2)cc1OC` [Compound 56, (Z)-3-(3,4-dimethoxy-phenyl)-2-thiophen-3-yl-acrylonitrile], the EC50 in test [1] was 0.037 µg/mL (≈ 0.136 µM); in test [2] (setting [4]), greater than 5 µg/mL.

In the case of “(Z)-2-(3,4-dimethoxy-phenyl)-3-pyridin-4-yl-acrylonitrile N-oxide [Compound 33]”, the “Effect of overcoming resistance EC50” value in test [1] was 0.52 µg/mL; in test [2] (setting [4]), greater than 5 µg/mL.
